Measurements reported in patent US20190388354A1, “IMPROVED COMPOSITIONS AND METHODS FOR REDUCING OVERDOSE” (priority 2017, published 2019).
Values joined by “and” are separate entries in the source; they are usually repeats but may differ in a detail not shown here. Equal entries are not always repeated.

Assay: Effect of different alkalinizing agents on the pH of an acidic solution
Assay type: physicochemical
Protocol: Various alkalinizing agents were added to a solution of 0.1 N HCl with a starting pH of 2.0 and the pH of the solution was tested at different time points.

Q: With `CNC[C@H](O)[C@@H](O)[C@H](O)[C@H](O)CO` [Meglumine, meglumine] as the compound, how does the “pH of 0.1N HCl solution (starting pH 2.0)” value (from here on “pH of 0.1N HCl solution”) (120 mg in 200 ml, time: 10,20,30,40,50,60 min) read?
A: The value was 2.16.

Q: With `O=C([O-])CC(O)(CC(=O)[O-])C(=O)[O-].[Na+].[Na+].[Na+]` [Sodium Citrate, sodium citrate] as the compound, how does the “pH of 0.1N HCl solution” value (930 mg in 200 ml, time: 10,20,30,40,50,60 min) read?
A: The value was 5.53.

Q: Which “pH of 0.1N HCl solution” value (10 mg (10.22 mg actual) in 200 ml, time by row: r6-r16=0-10 min, r17=20, r18=30 min, sulfate) does the source give for `CCCCCCCCCCCCOS(=O)(=O)[O-].[Na+]` [sodium lauryl sulfate] here?
A: Its value is 2.67 and 2.68.

Q: What about the “effect on the pH of the solution” value (10 mg in 200 ml, 30 minute timecourse) of the same compound?
A: The value was “insufficient to substantially raise the pH”.

Q: For `O=C([O-])[O-].[Mg+2]` [magnesium carbonate], which “pH reached” value (80 mg in 200 ml, 30 minute timecourse) is on record?
A: The value was “above 9”.

Q: What about the “pH of 0.1N HCl solution” value (100 mg Magnesium Carbonate in 200 ml, time: 10,20,30,40,50,60 min) of the same compound?
A: Its value is 3.05.

Q: Which “pH of 0.1N HCl solution” value (60 mg in 200 ml, time by row: r6-r15=1-10 min, r16-r20=20,30,40,50,60 min) does the source give for `[Mg+2].[OH-].[OH-]` [magnesium hydroxide] here?
A: The value was 2.96 and 2.99 and 3.00 and 3.01 and 2.50 and 2.66 and 2.83 and 2.92.

Q: And the “pH of 0.1N HCl solution” value (60 mg per 500 mL, time by row: r8-r18=0-10 min, r19-r23=20,30,40,50,60 min)?
A: The value was 2.12 and 2.17 and 2.18 and 2.19 and 2.01 and 2.06.

Q: What about the “effect on the pH of the solution” value (71 mg/200 ml, 81 mg/200 ml and 100 mg/200 ml, 60 minute timecourse) of the same compound?
A: Its value is “raised the pH of the solution to neutral or higher”.

Q: And the “pH of 0.1N HCl solution” value (100 mg per 500 mL, time by row: r8-r18=0-10 min, r19-r23=20,30,40,50,60 min)?
A: Its value is 2.21 and 2.33 and 2.38 and 2.40 and 2.41 and 2.03 and 2.10.

Q: And the “effect on the pH of the solution” value (100 mg/320 ml, 180 mg/500 ml, 120 mg/320 ml, 200 mg/500 ml and 240 mg/500 ml, 60 minute timecourse)?
A: The value was “rapidly raised the pH of the solution to neutral or higher”.

Q: What does the source list for `[O]=[Mg]` [magnesium oxide]?
A: effect on the pH of the solution (160 mg/320 ml (0.5 mg/ml), 60 minute timecourse): rapidly raised the pH of the solution to neutral or higher; effect on the pH of the solution (80-120 mg/200 ml powder and 80 mg granular form in 200 ml, 60 minute timecourse): rapidly raise the pH of the solution to neutral or higher

Q: With `Cl.N=C(N)NCCC[C@H](N)C(=O)O` [Arginine HCl, L-arginine-HCl] as the compound, how does the “pH of 0.1N HCl solution” value (100 mg Arginine HCl in 200 ml, time: 10,20,30,40,50,60 min) read?
A: Its value is 2.20.

Q: Which “pH of 0.1N HCl solution” value (11.13 mg in 200 ml, time by row: r7-r12=0-5 min, r13-r16=10,15,20,60 min) does the source give for `O=C([O-])[O-].[Na+].[Na+]` [sodium carbonate] here?
A: The value was 2.80 and 2.66.

Q: What about the “pH of 0.1N HCl solution” value (30.11 mg in 200 ml, time by row: r7-r12=0-5 min, r13-r16=10,15,20,60 min) of the same compound?
A: Its value is 3.25 and 3.26 and 3.27 and 2.57 and 3.21 and 3.24.

Q: What about the “effect on the pH of the solution” value (81.68 mg in 200 ml, 60 minute timecourse) of the same compound?
A: Its value is “raise the pH of the 200 ml solution to above neutral”.

Q: Which results are given for `O=C([O-])O.[Na+]` [sodium bicarbonate]?
A: pH of 0.1N HCl solution (starting pH 2.0) (20 mg per 320 mL, time by row: r6-r16=0-10 min, r17-r21=20,30,40,50,60 min): 2.05 and 2.02 and 2.04; effect on the pH of the solution (20 mg/320 ml and 40 mg/320 ml, 60 minute timecourse): neither amount tested was sufficient to raise the pH to neutral or higher; pH of 0.1N HCl solution (starting pH 2.0) (40 mg per 320 mL, time by row: r6-r16=0-10 min, r17-r21=20,30,40,50,60 min): 2.08 and 2.09 and 2.05; pH of 0.1N HCl solution (starting pH 2.0) (50 mg in 200 ml, time by row: r6-r10=0,10,20,30,40 min): 1.72 and 1.71; pH of 0.1N HCl solution (starting pH 2.0) (100 mg in 200 ml, time by row: r6-r10=0,10,20,30,40 min): 1.75 and 1.71 and 1.76; effect on the pH of the solution (50 and 100 mg/200 ml, 40 minute timecourse): neither tested amount was sufficient to raise the pH

Q: Which “effect on the pH of the solution” value (240 mg/320 ml (0.75 mg/ml), 60 minute timecourse) does the source give for `O=C([O-])[O-].[Ca+2]` [calcium carbonate] here?
A: Its value is “rapidly raised the pH of the solution to neutral or higher”.

Q: And the “effect on the pH of the solution” value (120-140 mg/200 ml, 60 minute timecourse)?
A: The value was “raise the pH of the solution to near neutral or neutral”.

Q: Which “pH of 0.1N HCl solution” value (200 mg in 200 ml, time: 10,20,30,40,50,60 min) does the source give for `CC(=O)[O-].[Na+]` [Sodium Acetate, sodium acetate] here?
A: The value was 4.96 and 5.08 and 5.21 and 5.34 and 4.73.
